Measured values taken from patent US8222244B2, “Staurosporine derivatives as inhibitors of FLT3 receptor tyrosine kinase activity” (Novartis AG, priority 2001, dated 2012).

molecular target: T1, human Flt-3 (Homo sapiens, UniProt P36888); assay: Tyrosine protein kinase assay with purified GST-Flt-3 (33P incorporation); format: biochemical; conditions: at a 1.0 micromolar concentration
T1 construct: expresses the amino acid region amino acids 563-993 of the intra-cytoplasmic kinase domains of human Flt-3; made in house; host or cells: Sf9 insect cells (baculovirus, pFbacG01 donor vector)
T1 sequence (P36888 563-993): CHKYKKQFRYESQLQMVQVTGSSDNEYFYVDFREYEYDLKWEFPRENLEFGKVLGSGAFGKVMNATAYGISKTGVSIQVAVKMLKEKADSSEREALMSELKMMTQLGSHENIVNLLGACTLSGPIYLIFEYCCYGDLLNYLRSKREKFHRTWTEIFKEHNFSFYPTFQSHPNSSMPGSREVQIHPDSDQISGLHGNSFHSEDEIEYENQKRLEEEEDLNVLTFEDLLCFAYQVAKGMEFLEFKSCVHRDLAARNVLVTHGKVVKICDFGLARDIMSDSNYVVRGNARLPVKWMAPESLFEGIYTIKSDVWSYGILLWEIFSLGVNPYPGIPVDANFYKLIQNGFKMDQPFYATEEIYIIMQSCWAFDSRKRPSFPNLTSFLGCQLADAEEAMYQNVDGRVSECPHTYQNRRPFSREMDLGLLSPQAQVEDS
Procedure: ATP into appropriate substrates.
The coding sequences for the cytoplasmic domain of Flt-3 was amplified by PCR from human c-DNA libraries (Clontech). The amplified DNA fragments and the pFbacG01 vector were made compatible for ligation by digestion with BamH1 and Hind III. […] The production of the viruses, the expression of proteins in Sf9 cells and the purification of the GST-fused proteins were performed as following:
(Generation of Bac- to Bac GST-fusion vectors); pFbacG01, pFbacGST2T and pFbacGSTx3 Bac-to-Bac™ donor vectors were generated from pAcG1, pAcG2T and pAcG3X respectively, which facilitate the expression of GST-fusion proteins with the possibility of cleavage with thrombin (pFbacGT2) or factor Xa (pFbacGSTx3) while pFbacG01 expresses no proteolytic cleavage site. These were generated in house by isolation of the DNA fragment containing the gene for GST with the C-terminal protease and restriction sites by restriction enzyme digestion of the relevant PharMingen baculovirus donor vector with EcoRV and EcoRI. This EcoRV/EcoRI fragment was ligated into the pFastBac1 vector which had been restriction digested with BamHI, blunt-ended by Klenow reaction and subsequently digested with EcoRI to generate a blunt-ended/EcoRI vector. (Production of virus); Transfer vectors containing the kinase domains were transfected into the DH10Bac cell line (GIBCO) and plated on selective agar plates. Colonies without insertion of the fusion sequence into the viral genome (carried by the bacteria) are blue. Single white colonies were picked and viral DNA (bacmid) isolated from the bacteria by standard plasmid purification procedures. Sf9 cells or Sf21 cells were then transfected in 25 cm^2 flasks with the viral DNA using Cellfectin reagent. (Determination of small scale protein expression in Sf9 cells); Virus containing media was collected from the transfected cell culture and used for infection to increase its titer. Virus containing media obtained after two rounds of infection was used for large-scale protein expression. For large-scale protein expression 100 cm^2 round tissue culture plates were seeded with 5×10^7 cells/plate and infected with 1 mL of virus-containing media (approx. 5 MOIs). After 3 days the cells were scraped off the plate and centrifuged at 500 rpm for 5 min. Cell pellets from 10-20, 100 cm^2 plates, were resuspended in 50 mL of ice-cold lysis buffer (25 mMTris-HCl, pH7.5, 2 mMEDTA, 1% NP-40, 1 mM DTT, 1 mMP MSF). The cells were stirred on ice for 15 min and then centrifuged at 5000 rpms for 20 min.
ATP 0.1 μCi). […] ATP into appropriate substrates. […] Subsequently, 40 μL of the reaction mixture were transferred onto Immobilon-PVDF membrane (Millipore, Bedford, Mass., USA) previously soaked for 5 min with methanol, rinsed with water, then soaked for 5 min with 0.5% H3PO4 and mounted on vacuum manifold with disconnected vacuum source. After spotting all samples, vacuum was connected and each well rinsed with 200 μL 0.5% H3PO4. Membranes were removed and washed 4× on a shaker with 1.0% H3PO4, once with ethanol. Membranes were counted after drying at ambient temperature, mounting in Packard TopCount 96-well frame, and addition of 10 μL/well of Microscint™ (Packard). […] One unit of protein kinase activity is defined as 1 nmole of ^33P ATP transferred from [γ^33P] ATP to the substrate protein per minute per mg of protein at 37° C.

| Molecule | Flt3 Inhibition (percent inhibition of Flt3 kinase activity) |
| --- | --- |
| [9a,10b,11b(S*),13a]-2-(Acetylamino)-2-deoxy-3-O-[1-[[(2,3,10,11,12,13-hexahydro-10-methoxy-9-methyl-1-oxo-9,13-epoxy-1H,9H-diindolo[1,2,3-gh:3′,2′,1′-lm]pyrrolo[3,4-j][1,7]benzodiazonin-11-yl)methylamino]carbonyl]propyl]-a-D-Glucopyranose [149622-60-6] | 76% |
| (9a,10b,11b,13a)-11-[(N-Acetyl-6-amino-6-deoxy-b-muramoyl)methylamino]-2,3,10,11,12,13-hexahydro-10-methoxy-9-methyl-9,13-epoxy-1H,9H-diindolo[1,2,3-gh:3′,2′,1′-lm]pyrrolo[3,4-j][1,7]benzodiazonin-1-one [149713-77-9] | 96% |
| COC1C(N(C)C(=O)CNC(=O)OCc2ccccc2)CC2OC1(C)n1c3ccccc3c3c4c(c5c6ccccc6n2c5c31)C(=O)NC4 (stereo not shown) [125035-78-1, (9a,10b,11b,13a)-[2-[(2,3,10,11,12,13-Hexahydro-10-methoxy-9-methyl-1-oxo-9,13-epoxy-1H,9H-diindolo[1,2,3-gh:3′,2′,1′-lm]pyrrolo[3,4-j][1,7]benzodiazonin-11-yl)methylamino]-2-oxoethyl]-carbamic acid, phenylmethyl ester] | 52% |
| (9a,10b,11b,13a)-11-[[N-Acetyl-6-O-(methylsulfonyl)-1-O-(phenylmethyl)-a-muramoyl]methylamino]-2,3,10,11,12,13-hexahydro-10-methoxy-9-methyl-, 9,13-epoxy-1H,9H-diindolo[1,2,3-gh:3′,2′,1′-lm]pyrrolo[3,4-j][1,7]benzodiazonin-1-one [149622-41-3] | 51% |
| N-[(9S,10R,11R,13R)-2,3,10,11,12,13-Hexahydro-10-methoxy-9-methyl-1-oxo-9,13-epoxy-1H,9H-diindolo[1,2,3-gh:3′,2′,1′-lm]pyrrolo[3,4-j][1,7]benzodiazonin-11-yl]-2-hydroxy-N-methyl-Benzamide [178955-60-7] | 89% |
| (9a,10b,11b,13a)-11-[[N-Acetyl-1-O-(phenylmethyl)-a-isomuramoyl]methylamino]-2,3,10,11,12,13-hexahydro-10-methoxy-9-methyl-9,13-epoxy-1H,9H-diindolo[1,2,3-gh:3′,2′,1′-lm]pyrrolo[3,4-j][1,7]benzodiazonin-1-one [149713-64-4] | 76% |
| 11-[[N-Acetyl-1-deoxy-4,6-O-(phenylmethylene)muramoyl]methylamino]-2,3,10,11,12,13-hexahydro-10-methoxy-9-methyl-9,13-epoxy-1H,9H-diindolo[1,2,3-gh:3′,2′,1′-lm]pyrrolo[3,4-j][1,7]benzodiazonin-1-one [149622-49-1] | 74% |
| (9a,10b,11b,13a)-11-[(N-Acetyl-1-deoxymuramoyl)methylamino]-2,3,10,11,12,13-hexahydro-10-methoxy-9-methyl-9,13-epoxy-1H,9H-diindolo[1,2,3-gh:3′,2′,1′-lm]pyrrolo[3,4-j][1,7]benzodiazonin-1-one [149622-63-9] | 98% |
| CO[C@@H]1[C@H](N(C)C(=O)C(C)(C)OC2CCOCC2)C[C@H]2O[C@]1(C)n1c3ccccc3c3c4c(c5c6ccccc6n2c5c31)C(=O)NC4 [160251-55-8, [9S-(9a,10b,11b,13a)]-N-(2,3,10,11,12,13-Hexahydro-10-methoxy-9-methyl-1-oxo-9,13-epoxy-1H,9H-diindolo[1,2,3-gh:3′,2′,1′-lm]pyrrolo[3,4-j][1,7]benzodiazonin-11-yl)-N,2-dimethyl-2-[(tetrahydro-2H-pyran-4-yl)oxy]-propanamide] | 85% |
| (9a,10b,11b,13a)-11-[[N-Acetyl-1-deoxy-6-O-[(4-methylphenyl)sulfonyl]muramoyl]methylamino]-2,3,10,11,12,13-hexahydro-10-methoxy-9-methyl-, 9,13-epoxy-1H,9H-diindolo[1,2,3-gh:3′,2′,1′-lm]pyrrolo[3,4-j][1,7]benzodiazonin-1-one [149622-70-8] | 67% |
| COC1C(N(C)C(=O)C(F)(F)F)CC2OC1(C)n1c3ccccc3c3c4c(c5c6ccccc6n2c5c31)C(=O)NC4 [120685-12-3, 2,2,2-Trifluoro-N-[(9S,10R,11R,13R)-2,3,10,11,12,13-hexahydro-10-methoxy-9-methyl-1-oxo-9,13-epoxy-1H,9H-diindolo[1,2,3-gh:3′,2′,1′-lm]pyrrolo[3,4-j][1,7]benzodiazonin-11-yl]-N-methyl-acetamide] | 66% |
| COC1C(N(C)C(=O)c2ccc(F)cc2)CC2OC1(C)n1c3ccccc3c3c4c(c5c6ccccc6n2c5c31)C(=O)NC4 (stereo not shown) [120685-44-1, (9a,10b,11b,13a)-4-Fluoro-N-(2,3,10,11,12,13-hexahydro-10-methoxy-9-methyl-1-oxo-9,13-epoxy-1H,9H-diindolo[1,2,3-gh:3′,2′,1′-lm]pyrrolo[3,4-j][1,7]benzodiazonin-11-yl)-N-methyl-benzamide] | 55% |
| COC1C(N(C)C(=O)c2cccc(F)c2)CC2OC1(C)n1c3ccccc3c3c4c(c5c6ccccc6n2c5c31)C(=O)NC4 (stereo not shown) [120685-16-7, (9a,10b,11b,13a)-3-Fluoro-N-(2,3,10,11,12,13-hexahydro-10-methoxy-9-methyl-1-oxo-9,13-epoxy-1H,9H-diindolo[1,2,3-gh:3′,2′,1′-lm]pyrrolo[3,4-j][1,7]benzodiazonin-11-yl)-N-methyl-benzamide] | 60% |
| CO[C@@H]1[C@H](N(C)C(=O)OC(C)(C)C)C[C@H]2O[C@]1(C)n1c3ccccc3c3c4c(c5c6ccccc6n2c5c31)C(=O)NC4 [120685-17-8, [9S-(9a,10b,11b,13a)]-(2,3,10,11,12,13-Hexahydro-10-methoxy-9-methyl-1-oxo-9,13-epoxy-1H,9H-diindolo[1,2,3-gh:3′,2′,1′-lm]pyrrolo[3,4-j][1,7]benzodiazonin-11-yl)methyl-carbamic acid, 1,1-dimethylethyl ester] | 33% |
| COC1C(N(C)C(=O)c2cnccn2)CC2OC1(C)n1c3ccccc3c3c4c(c5c6ccccc6n2c5c31)C(=O)NC4 (stereo not drawn) [155848-17-2, [9S-(9a,10b,11b,13a)]-N-(2,3,10,11,12,13-Hexahydro-10-methoxy-9-methyl-1-oxo-9,13-epoxy-1H,9H-diindolo[1,2,3-gh:3′,2′,1′-lm]pyrrolo[3,4-g][1,7]benzodiazonin-11-yl)-N-methyl-pyrazinecarboxamide] | 85% |
| COC1C([N+](C)(C)C)CC2OC1(C)n1c3ccccc3c3c4c(c5c6ccccc6n2c5c31)C(=O)NC4.[I-] (stereo not drawn) [120685-26-9, [9S-(9a,10b,11b,13a)]-2,3,10,11,12,13-Hexahydro-10-methoxy-N,N,N,9-tetramethyl-1-oxo-9,13-epoxy-1H,9H-diindolo[1,2,3-gh:3′,2′,1′-lm]pyrrolo[3,4-j][1,7]benzodiazonin-11-aminium iodide] | 97% |
